The results in this text go back to US20090312556A1, “N-(2-AMINIPHENYL)-4-(5-((ETHYLAMINO)METHYL)-1,2-THIAZOL-2-YL) BENZAMIDE AND N-(2-AMINOPHENYL)-4-(5-((ISOPROPYLAMINO)METHYL)-1,2-THIAZOL-2-YL) BENZAMIDE AS HDAC INHIBITORS” (ASTRAZENECA R& D ALDERLY, priority 2004, published 2009).

The test system of one assay is HCT116 cells. The experiment in a line: In vitro assay of inhibition of proliferation in whole cells (MTS). It is filed as cell-based. As to conditions: Homo sapiens, HCT-116, 72 hours, read-out: IC50 (nM) Test (b) (In vitro assay for the inhibition of whole cell proliferation). The method, then: Inhibition of proliferation in whole cells was assayed using the Promega cell titer 96 aqueous proliferation assay (Promega #G5421). HCT116 cells were seeded in 96 well plates at 1×10^3 cells/well, and allowed to adhere overnight. They were treated with inhibitors for 72 hours. 20 μl of the tetrazolium dye MTS was added to each well and the plates were re-incubated for 3 hours. Absorbance was then measured on a 96 well plate reader at […]. The IC50 values for HDAC inhibitors were determined by performing dose response curves with individual compounds and determining the concentration of inhibitor producing fifty percent decrease in the maximal signal (diluent control).

The target in another assay is T1, recombinant human HDAC1 (Homo sapiens, UniProt Q13547).
T1 construct: FLAG (C); made in house; host or cells: Hi5 insect cells
Nature of the assay: In vitro enzyme assay of recombinant HDAC1. The conditions noted are these: recombinant human HDAC1, acetylated histone H4 peptide; read-out: IC50 (nM) Test (a) (In vitro assay for the inhibition of HDAC1). It is filed as biochemical. The method, then:
HDAC inhibitors were screened against recombinant human HDAC1 produced in Hi5 insect cells. The enzyme was cloned with a FLAG tag at the C-terminal of the gene and affinity purified using Anti-FLAG M2 agarose from SIGMA (A2220).
The deacetylase assays were carried out in a 50 μl reaction. HDAC1 (75 ng of enzyme) diluted in 15 μl of reaction buffer (25 mM TrisHCl (pH 8), 137 mM NaCl, 2.7 mM KCl, 1 mM MgCl2) was mixed with either buffer alone (10 μl) or buffer containing compound (10 μl) for 30 minutes at ambient temperature. 25 μM acetylated histone H4 peptide (KI 174 Biomol) diluted in 25 μl of buffer was then added to the reaction and incubated for one hour at ambient temperature. The reaction was stopped by addition of an equal volume (50 μl) of Fluor de Lys developer (Biomol) containing Trichostatin A at 2 μM. The reaction was allowed to develop for 30 minutes at ambient temperature and then fluorescence measured at an excitation wavelength of 360 nm and an emission wavelength of 465 nm. IC50 values for HDAC enzyme inhibitors were determined by performing dose response curves with individual compounds and determining the concentration of inhibitor producing fifty percent decrease in the maximal signal (diluent control).

T1 sequence (Q13547 whole entry): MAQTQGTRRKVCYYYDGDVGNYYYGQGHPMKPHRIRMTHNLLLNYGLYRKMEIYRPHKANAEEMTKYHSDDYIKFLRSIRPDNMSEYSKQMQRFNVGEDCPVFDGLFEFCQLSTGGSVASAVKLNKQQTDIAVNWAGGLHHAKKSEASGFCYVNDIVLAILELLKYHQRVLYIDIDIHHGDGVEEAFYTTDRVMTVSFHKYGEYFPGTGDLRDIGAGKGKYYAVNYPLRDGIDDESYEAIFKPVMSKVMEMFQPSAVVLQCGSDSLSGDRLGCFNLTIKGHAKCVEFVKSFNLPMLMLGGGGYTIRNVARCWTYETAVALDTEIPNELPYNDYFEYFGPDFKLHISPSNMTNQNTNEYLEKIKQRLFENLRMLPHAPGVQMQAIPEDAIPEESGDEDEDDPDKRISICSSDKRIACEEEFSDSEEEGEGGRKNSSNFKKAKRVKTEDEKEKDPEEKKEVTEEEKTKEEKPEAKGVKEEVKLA

As to `CC(C)NCc1cnc(-c2ccc(C(=O)Nc3ccccc3N)cc2)s1` [Example 1, N-(2-aminophenyl)-4-{5-[(isopropylamino)methyl]-1,3-thiazol-2-yl}benzamide], the results for the IC50 in the assay with HCT116 cells and at recombinant human HDAC1 were 183 nM and 29 nM, respectively.
